In PubChem BioAssay AID2060351 (Molecular Pharmacology Branch, DTP, NCI, 2025):
Values joined by “and” are separate entries in the source; they are usually repeats but may differ in a detail not shown here. Equal entries are not always repeated.

Test system: 521955-158-R7-J2-PDC spheroids, viability % test/control
Test: Anticancer human tumor 521955-158-R7-J2-PDC patient-derived pancreatic carcinoma cell line growth inhibition [TAK]
Conditions: spheroids with HUVEC and MSC; for viability, T/C: stronger effect = lower value
Summary of the method: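 Drug combinations, each paired with TAK-243 or ipatasertib, were tested on multi-cell spheroids of 60% malignant cells, 25% HUVEC and 15% hMSC. Top concentrations were at or near the clinical Cmax (10 microM if undetermined), decreasing by half-log; viability is given as % test/control.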

[1] = curve of first compound, second compound 0.3 µM
[2] = curve of first compound, second compound 0.949 µM
[3] = curve of first compound, second compound 3 µM
[4] = curve of first compound, second compound 9.49 µM
[5] = curve of first compound, second compound 30 µM
[6] = second compound 0.3 µM, first compound 0.0316 µM
[7] = second compound 0.3 µM, first compound 0.1 µM
[8] = second compound 0.3 µM, first compound 0.316 µM
[9] = second compound 0.3 µM, first compound 1 µM
[10] = second compound 0.3 µM, first compound 3.16 µM
[11] = second compound 0.3 µM, first compound 10 µM
[12] = second compound 0.949 µM, first compound 0.0316 µM
[13] = second compound 0.949 µM, first compound 0.1 µM
[14] = second compound 0.949 µM, first compound 0.316 µM
[15] = second compound 0.949 µM, first compound 1 µM
[16] = second compound 0.949 µM, first compound 3.16 µM
[17] = second compound 0.949 µM, first compound 10 µM
[18] = second compound 3 µM, first compound 0.0316 µM
[19] = second compound 3 µM, first compound 0.1 µM
[20] = second compound 3 µM, first compound 0.316 µM
[21] = second compound 3 µM, first compound 1 µM
[22] = second compound 3 µM, first compound 3.16 µM
[23] = second compound 3 µM, first compound 10 µM
[24] = second compound 9.49 µM, first compound 0.0316 µM
[25] = second compound 9.49 µM, first compound 0.1 µM
[26] = second compound 9.49 µM, first compound 0.316 µM
[27] = second compound 9.49 µM, first compound 1 µM
[28] = second compound 9.49 µM, first compound 3.16 µM
[29] = second compound 9.49 µM, first compound 10 µM
[30] = second compound 30 µM, first compound 0.0316 µM
[31] = second compound 30 µM, first compound 0.1 µM
[32] = second compound 30 µM, first compound 0.316 µM
[33] = second compound 30 µM, first compound 1 µM
[34] = second compound 30 µM, first compound 3.16 µM
[35] = second compound 30 µM, first compound 10 µM
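Note: spheroids exposed to compound for 7 days before readout.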
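Throughout, for viability, T/C: 100% = DMSO vehicle control wells.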

SMILES: Cn1cnc2c(F)c(Nc3ccc(Br)cc3Cl)c(C(=O)NOCCO)cc21 + CC(C)NCC(C(=O)N1CCN(c2ncnc3c2C(C)CC3O)CC1)c1ccc(Cl)cc1
- IC50 [1]: 108 nM
- IC50 [2]: 65 nM
- IC50 [3]: 33.9 nM
- IC50 [4]: 19.9 nM
- IC50 [5]: 17.4 nM
- viability, T/C (second compound 0.3 µM, first compound 0.00949 µM): 71.3%
- viability, T/C (second compound 0.3 µM, first compound 0.03 µM): 61.7%
- viability, T/C (second compound 0.3 µM, first compound 0.0949 µM): 45.6%
- viability, T/C (second compound 0.3 µM, first compound 0.3 µM): 45.5%
- viability, T/C (second compound 0.3 µM, first compound 0.949 µM): 28.2%
- viability, T/C (second compound 0.3 µM, first compound 3 µM): 13.9%
- viability, T/C (second compound 0.949 µM, first compound 0.00949 µM): 76.7%
- viability, T/C (second compound 0.949 µM, first compound 0.03 µM): 55.5%
- viability, T/C (second compound 0.949 µM, first compound 0.0949 µM): 46.3%
- viability, T/C (second compound 0.949 µM, first compound 0.3 µM): 31.3%
- viability, T/C (second compound 0.949 µM, first compound 0.949 µM): 25.5%
- viability, T/C (second compound 0.949 µM, first compound 3 µM): 9.79%
- viability, T/C (second compound 3 µM, first compound 0.00949 µM): 63.9%
- viability, T/C (second compound 3 µM, first compound 0.03 µM): 54.7%
- viability, T/C (second compound 3 µM, first compound 0.0949 µM): 32.4%
- viability, T/C (second compound 3 µM, first compound 0.3 µM): 31.5%
- viability, T/C (second compound 3 µM, first compound 0.949 µM): 23.7%
- viability, T/C (second compound 3 µM, first compound 3 µM): 9.02%
- viability, T/C (second compound 9.49 µM, first compound 0.00949 µM): 61.8%
- viability, T/C (second compound 9.49 µM, first compound 0.03 µM): 40.4%
- viability, T/C (second compound 9.49 µM, first compound 0.0949 µM): 34%
- viability, T/C (second compound 9.49 µM, first compound 0.3 µM): 27.5%
- viability, T/C (second compound 9.49 µM, first compound 0.949 µM): 25.7%
- viability, T/C (second compound 9.49 µM, first compound 3 µM): 10.8%
- viability, T/C (second compound 30 µM, first compound 0.00949 µM): 56.6%
- viability, T/C (second compound 30 µM, first compound 0.03 µM): 43.3%
- viability, T/C (second compound 30 µM, first compound 0.0949 µM): 34.6%
- viability, T/C (second compound 30 µM, first compound 0.3 µM): 30%
- viability, T/C (second compound 30 µM, first compound 0.949 µM): 17.6%
- viability, T/C (second compound 30 µM, first compound 3 µM): 7.96%

SMILES: CC(C)(C)c1nc(-c2cccc(NS(=O)(=O)c3c(F)cccc3F)c2F)c(-c2ccnc(N)n2)s1 + CC(C)NCC(C(=O)N1CCN(c2ncnc3c2C(C)CC3O)CC1)c1ccc(Cl)cc1
- IC50 [1]: > 10000 nM
- IC50 [2]: > 10000 nM
- IC50 [3]: > 10000 nM
- IC50 [4]: > 10000 nM
- IC50 [5]: > 10000 nM
- viability, T/C [6]: 111%
- viability, T/C [7]: 94.3%
- viability, T/C [8]: 106%
- viability, T/C [9]: 131%
- viability, T/C [10]: 101%
- viability, T/C [11]: 74.2%
- viability, T/C [12]: 89.3%
- viability, T/C [13]: 102%
- viability, T/C [14]: 90.4%
- viability, T/C [15]: 103%
- viability, T/C [16]: 92.7%
- viability, T/C [17]: 60.3%
- viability, T/C [18]: 95%
- viability, T/C [19]: 115%
- viability, T/C [20]: 108%
- viability, T/C [21]: 130%
- viability, T/C [22]: 101%
- viability, T/C [23]: 71.5%
- viability, T/C [24]: 127%
- viability, T/C [25]: 115%
- viability, T/C [26]: 117%
- viability, T/C [27]: 119%
- viability, T/C [28]: 105%
- viability, T/C [29]: 83.7%
- viability, T/C [30]: 111%
- viability, T/C [31]: 130%
- viability, T/C [32]: 138%
- viability, T/C [33]: 136%
- viability, T/C [34]: 130%
- viability, T/C [35]: 97.2%

SMILES: Cc1nc(NC(=O)N2CCCC2C(N)=O)sc1-c1ccnc(C(C)(C)C(F)(F)F)c1 (configuration not stated) + CC(C)NCC(C(=O)N1CCN(c2ncnc3c2C(C)CC3O)CC1)c1ccc(Cl)cc1
- IC50 [1]: 5650 nM
- IC50 [2]: 3050 nM
- IC50 [3]: 1320 nM
- IC50 [4]: 384 nM
- IC50 [5]: 280 nM
- viability, T/C [6]: 106%
- viability, T/C [7]: 106%
- viability, T/C [8]: 83.6%
- viability, T/C [9]: 62.2%
- viability, T/C [10]: 69.5%
- viability, T/C [11]: 38.6%
- viability, T/C [12]: 84%
- viability, T/C [13]: 82.6%
- viability, T/C [14]: 64.6%
- viability, T/C [15]: 54.7%
- viability, T/C [16]: 60.5%
- viability, T/C [17]: 33.6%
- viability, T/C [18]: 90%
- viability, T/C [19]: 79%
- viability, T/C [20]: 54.6%
- viability, T/C [21]: 57.3%
- viability, T/C [22]: 45.4%
- viability, T/C [23]: 30.8%
- viability, T/C [24]: 92.6%
- viability, T/C [25]: 70.1%
- viability, T/C [26]: 48%
- viability, T/C [27]: 43%
- viability, T/C [28]: 36.7%
- viability, T/C [29]: 27.8%
- viability, T/C [30]: 93.7%
- viability, T/C [31]: 79.7%
- viability, T/C [32]: 44.6%
- viability, T/C [33]: 43.2%
- viability, T/C [34]: 39.7%
- viability, T/C [35]: 25.6%

SMILES: CC(C)n1nc(-c2ccc3oc(N)nc3c2)c2c(N)ncnc21
- viability, T/C (compound 0.000316 µM): 78.4% and 94.7%
- viability, T/C (compound 0.001 µM): 79.4% and 104%
- viability, T/C (compound 0.00316 µM): 81.2% and 82.3%
- viability, T/C (compound 0.01 µM): 86.4% and 90.7%
- viability, T/C (compound 0.0316 µM): 76% and 109%
- viability, T/C (compound 0.1 µM): 71.2% and 53.7%
- IC50 (curve of compound): > 100 nM
